Reference: US20100183625A1, “Treatment of Mucositis with Kallikrein Inhibitors” (Dyax Corp., priority 2009, published 2010)
Positions of bridges follow the written chain, without caps; N, C: chain ends. No end group written: not given here.

What was measured:
[1] = biological target: plasma kallikrein (NP_000883) (Homo sapiens, UniProt P03952); conditions: cited from earlier work
[2] = Lot 100808, phosphate buffered saline, pH 7.0, 5.6 mg/mL
pKal = pKal (Homo sapiens, UniProt P03952); conditions: read-out: Ki,app; active site inhibitor of pKal; cited from earlier work
Sequence of pKal (P03952 20-638): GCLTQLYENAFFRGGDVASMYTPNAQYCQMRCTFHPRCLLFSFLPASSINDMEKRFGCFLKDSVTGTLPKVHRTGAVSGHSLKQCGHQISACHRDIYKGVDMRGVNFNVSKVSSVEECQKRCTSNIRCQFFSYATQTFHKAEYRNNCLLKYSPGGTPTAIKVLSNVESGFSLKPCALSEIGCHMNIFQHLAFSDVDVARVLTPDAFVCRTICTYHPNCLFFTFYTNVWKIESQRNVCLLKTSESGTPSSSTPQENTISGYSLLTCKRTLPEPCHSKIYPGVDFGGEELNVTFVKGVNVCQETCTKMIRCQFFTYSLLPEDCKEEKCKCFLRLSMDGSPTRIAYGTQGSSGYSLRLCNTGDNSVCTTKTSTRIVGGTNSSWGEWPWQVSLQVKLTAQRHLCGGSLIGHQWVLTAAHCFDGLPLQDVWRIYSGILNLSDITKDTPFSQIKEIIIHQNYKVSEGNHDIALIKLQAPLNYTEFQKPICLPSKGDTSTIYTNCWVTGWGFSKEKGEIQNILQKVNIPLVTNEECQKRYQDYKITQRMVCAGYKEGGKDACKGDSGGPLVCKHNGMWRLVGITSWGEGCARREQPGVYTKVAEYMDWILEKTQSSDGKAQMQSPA

Sequence of plasma kallikrein (NP_000883) (P03952 20-638): as above

Row | Sequence | Ki [1] [pM] | Stability [2] | Ki (pKal) [pM]
1 | EAMHSFCAFKADDGPCRAAHPRWFFNIFTRQCEEFIYGGCEGNQNRFESLEECKKMCTRD (disulfide 7-57, 16-40, 32-53) [DX-88] | < 1000 | – | –
2 | EAMHSFCAFKADDGPCRAAHPRWFFNIFTRQCEEFSYGGCGGNQNRFESLEECKKMCTRD (disulfide 7-57, 16-40, 32-53) [EPI-KAL2] | – | Stable for 24 hours at 2-4 °C | 100
